Consider two compounds from patent US8748575B2, “Therapeutic peptides” (Combimab, Inc., priority 2010, dated 2014).

For data set [1] the following is noted: 12 weeks treatment period; cited from earlier work.
For data set [2] the following is noted: cited from earlier work.
For data set [3] the following is noted: human intestinal fluid; cited from earlier work.
A short description of data set [4]: Stability in rat intestinal fluid (Kessler 2008, 2009). The class given is in vitro ADME. As to conditions: ileal vs duodenal fluid. The protocol:
According to the present invention, there are additional reasons why the distal jejunum, ileum, cecum and proximal colon are the preferred targets for a GCCR agonist. […] ST peptides are stable in the stomach but are rapidly degraded in the upper intestine. […] However, linaclotide is degraded rapidly in the duodenum. In intestinal fluids from both mouse, rat and humans the peptide loses its C-terminal tyrosine and forms an active metabolite. The half life for linaclotide is 3 minutes in rat intestinal fluid and 1 minute in human intestinal fluid. This metabolite is also rapidly degraded, first by reductases and then by proteases. The half life for the metabolite is about 5 minutes in rat intestinal fluid, and 3 minutes in human intestinal fluid. It is not detectable after 60 minutes in rat intestinal fluid, and after 18 minutes in human intestinal fluid (Kessler et al., 2009; Kessler et al., 2008). Thus, if released in the stomach or duodenum, an ST peptide analogue such as linaclotide will be active only in the duodenum. It is likely that an uroguanylin analogue such as plecanatide is degraded even more rapidly and therefore has an even shorter activity time.
This correlates with the free thiol concentrations in these locations and the activity of the Glutathione Reductase/Glutareduxin system activities in these locations.

A further data set concerns T84 cells (GC-C). The data set is described as follows: Intact T84 cell cGMP accumulation assay. As to conditions: for activity in the cGMP accumulation assay: FIG. 22, compared to STa peptide; for CGMP accumulation assay: graded activity/potency, T84 cells. The class given is cell-based, Human. Further details: key to CGMP accumulation assay: 1+ (lowest activity/potency); ++: Results are graded from 1+ (lowest activity/potency) to 5+ (highest activity/potency); +++: Results are graded from 1+ (lowest activity/potency) to 5+ (highest activity/potency); ++++: Results are graded from 1+ (lowest activity/potency) to 5+ (highest activity/potency); +++++: 5+ (highest activity/potency). The protocol:
The intact T84 cell assay was used to detect the accumulation of cGMP, the product of agonism, upon interaction with a compound (Visweswariah et al., 1992). Human colorectal adenocarcinoma T84 cells were grown to confluence in a 24 well plate using DMEM/F12 medium supplemented with 10% FBS. The media was aspirated from each well and the cells were washed three times with Dulbecco's PBS (1×, no Ca2+ or Mg2+). The cells were then incubated for 30 minutes at 37° C. with 1 mM […] (IBMX) in Optimem medium (no FBS), either with or without potential antagonists. After incubation under these conditions, a 10× concentrated stock of a known GC-C agonist (e.g., STa (5-18)) in PBS was added to each well and the incubation continued for an additional 15 min at 37° C.
The reaction was stopped by the addition of 200 μL of Passive Lysis Buffer (Promega) to each well. The supernatant was removed for cGMP quantitation by RIA using ^125I-labeled cGMP 54 antibody relative to an external cGMP standard curve. The cells were scraped from the surface for protein content determination using a BioRad Protein Assay.

For data set [5] the following is noted: cited from earlier work. This is another data set of the same source.
In data set [6] the target is T1, GCC (Rattus norvegicus, UniProt P23897).
T1 sequence (P23897 23-1072): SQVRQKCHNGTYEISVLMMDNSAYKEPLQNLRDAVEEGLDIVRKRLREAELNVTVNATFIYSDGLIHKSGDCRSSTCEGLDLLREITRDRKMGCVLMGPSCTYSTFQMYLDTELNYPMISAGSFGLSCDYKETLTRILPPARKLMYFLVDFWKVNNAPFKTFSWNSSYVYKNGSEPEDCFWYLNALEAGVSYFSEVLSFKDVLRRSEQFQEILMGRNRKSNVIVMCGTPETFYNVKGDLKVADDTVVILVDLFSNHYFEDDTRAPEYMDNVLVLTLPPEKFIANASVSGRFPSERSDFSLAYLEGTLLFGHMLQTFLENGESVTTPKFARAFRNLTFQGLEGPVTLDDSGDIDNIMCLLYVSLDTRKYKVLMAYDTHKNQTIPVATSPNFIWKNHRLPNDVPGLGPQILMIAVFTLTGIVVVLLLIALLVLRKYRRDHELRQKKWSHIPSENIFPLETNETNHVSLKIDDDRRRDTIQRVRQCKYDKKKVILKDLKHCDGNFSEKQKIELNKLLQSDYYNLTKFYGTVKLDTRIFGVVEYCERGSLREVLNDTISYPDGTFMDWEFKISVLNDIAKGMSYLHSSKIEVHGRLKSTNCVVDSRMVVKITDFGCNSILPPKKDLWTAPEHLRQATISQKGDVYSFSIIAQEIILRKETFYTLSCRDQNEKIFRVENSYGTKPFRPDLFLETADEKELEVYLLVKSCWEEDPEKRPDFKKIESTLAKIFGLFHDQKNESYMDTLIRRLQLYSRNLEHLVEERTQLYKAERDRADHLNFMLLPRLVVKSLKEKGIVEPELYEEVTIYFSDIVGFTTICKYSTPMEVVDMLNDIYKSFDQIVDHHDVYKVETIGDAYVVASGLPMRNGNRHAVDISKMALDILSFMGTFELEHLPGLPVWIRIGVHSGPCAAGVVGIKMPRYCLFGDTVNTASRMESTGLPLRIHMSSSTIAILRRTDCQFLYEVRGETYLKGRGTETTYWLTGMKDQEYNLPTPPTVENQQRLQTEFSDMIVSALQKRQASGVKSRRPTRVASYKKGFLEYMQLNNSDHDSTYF
Also on record: GCC expressed in the duodenum, cecum and colon; host or cells: intestinal tissue (duodenum, cecum, colon). To be noted: GCC expressed in the duodenum, cecum and colon; read-out: affinity (Ki) for GCC; cited from earlier work.

Data set [7] relates to GCC. To be noted: GCC expressed in the jejunum and cecum of the calf; cited from earlier work.
In data set [8] the target is T1, GCC. Also on record: ligated intestinal loops from Sprague Dawley and Wistar rats; host or cells: rat jejunal and ileal loops in vivo. To be noted: ileum relative to jejunum; cited from earlier work.
The target of data set [9] is T2, GCC (Homo sapiens, UniProt P25092).
T2 construct: human small intestine (n=20) and colon (n=24) specimens; host or cells: human small intestine and colon specimens
T2 sequence (P25092 24-1073): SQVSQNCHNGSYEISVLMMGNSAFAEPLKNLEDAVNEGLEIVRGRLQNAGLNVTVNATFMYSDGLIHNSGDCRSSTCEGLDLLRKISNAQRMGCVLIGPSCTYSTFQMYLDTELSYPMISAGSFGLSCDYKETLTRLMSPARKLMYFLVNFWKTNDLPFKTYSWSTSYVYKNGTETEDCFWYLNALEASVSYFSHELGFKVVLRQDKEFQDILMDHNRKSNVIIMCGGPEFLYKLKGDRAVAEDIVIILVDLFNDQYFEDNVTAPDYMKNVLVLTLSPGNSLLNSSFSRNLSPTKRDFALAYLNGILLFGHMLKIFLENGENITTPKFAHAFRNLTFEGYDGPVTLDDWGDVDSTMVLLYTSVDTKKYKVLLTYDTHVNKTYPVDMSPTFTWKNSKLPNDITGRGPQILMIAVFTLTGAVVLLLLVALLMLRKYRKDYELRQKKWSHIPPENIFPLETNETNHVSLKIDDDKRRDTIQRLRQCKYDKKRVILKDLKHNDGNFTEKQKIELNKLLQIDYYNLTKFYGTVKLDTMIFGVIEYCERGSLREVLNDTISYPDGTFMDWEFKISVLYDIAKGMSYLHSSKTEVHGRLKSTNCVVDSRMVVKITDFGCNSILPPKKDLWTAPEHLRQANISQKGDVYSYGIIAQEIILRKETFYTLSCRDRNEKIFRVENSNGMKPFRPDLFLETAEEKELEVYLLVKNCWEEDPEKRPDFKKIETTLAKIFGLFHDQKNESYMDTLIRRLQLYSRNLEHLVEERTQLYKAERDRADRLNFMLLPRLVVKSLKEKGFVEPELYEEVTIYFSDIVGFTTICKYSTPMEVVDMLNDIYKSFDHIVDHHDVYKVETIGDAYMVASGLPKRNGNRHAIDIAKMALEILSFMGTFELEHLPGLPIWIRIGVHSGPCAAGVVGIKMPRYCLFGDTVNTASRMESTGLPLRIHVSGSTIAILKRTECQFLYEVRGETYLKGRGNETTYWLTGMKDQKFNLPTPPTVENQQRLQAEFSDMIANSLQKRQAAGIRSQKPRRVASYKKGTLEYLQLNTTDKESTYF
As to conditions: read-out: affinity for the interaction with GCC, cited from earlier work.

Read-outs that look alike come from different tables or passages of the source. Residues, ends and D or L forms follow the SMILES beside them.

Take `C[C@@H]1NC(=O)[C@@H]2CCCN2C(=O)[C@H](CC(N)=O)NC(=O)[C@@H]2CSSC[C@H](N)C(=O)N[C@H]3CSSC[C@H](NC1=O)C(=O)N[C@@H]([C@@H](C)O)C(=O)NCC(=O)N[C@H](C(=O)N[C@@H](Cc1ccc(O)cc1)C(=O)O)CSSC[C@H](NC(=O)[C@H](Cc1ccc(O)cc1)NC(=O)[C@H](CCC(=O)O)NC3=O)C(=O)N2` [Linaclotide, H2N Cys Cys Glu Tyr Cys Cys Asn Pro Ala Cys Thr Gly Cys Tyr COOH] (HELM PEPTIDE1{C.C.E.Y.C.C.N.P.A.C.T.G.C.Y}$PEPTIDE1,PEPTIDE1,1:R3-6:R3|PEPTIDE1,PEPTIDE1,2:R3-10:R3|PEPTIDE1,PEPTIDE1,5:R3-13:R3$$$V2.0): the “patients achieving primary efficacy endpoint (three or more CSBMs per week and increase of at least one CSBM per week over baseline for at least nine of 12 weeks)” value in data set [1] is 21%. For the same compound, the half life entry in data set [2] (rat duodenal fluid) is “about 0.44 minutes”; in [2] (rat ileal fluid), “about 30 minutes”; in [2] (rat intestinal fluid), 3 min; in data set [2] (rat jejunal fluid), 0.36 min; in data set [3], 1 min. Further, the “more stable in ileal intestinal fluid compared to the duodenum” value in [4] is on record as “up to 100 ×”. Besides, the “activity in the cGMP accumulation assay” value in the data set with T84 cells (GC-C) and in the data set on T84 cells (GC-C) (second experiment) was “lower than the STa peptide” in each case. For the same compound, the CGMP accumulation assay entry in the data set with T84 cells (GC-C) is on record as “+++”. Further, the “stable in simulated gastric fluid for” value in data set [5] was “up to 3 hours”.
Take “H2N Asn Thr Phe Tyr Cys Cys Glu Leu Cys Cys Asn Pro Ala Cys Ala Gly Cys Tyr COOH [STa(1-18)]”: the values for the Ki on GCC [6], on GCC [9] (human colon specimens (n=24)) and on GCC [9] (human small intestine specimens (n=20)) were 1 to 4 nM, 1.2 nM and 1.9 nM, respectively. Besides, the “decrease in the affinity for its receptor” value in the data set with GCC [7] was 2 log. Further, the CGMP accumulation assay entry in the data set with T84 cells (GC-C) is recorded as “++++”. The “duration of response in intestinal loops” value at GCC [8] is listed as “significantly longer duration of response in the Ileum relative to the jejunum”.
